For 14 compounds, EC50, inhibition and Activity results are on record in ChEMBL document CHEMBL3286248, “Easily accessible polycyclic amines that inhibit the wild-type and amantadine-resistant mutants of the M2 channel of influenza A virus” (J Med Chem, 2014).

Each structure is given as a SMILES string. Where a name gives a salt, the structure may show the parent alone. Activity calls are given as the source filed them. The calls are words filed in the database; no cut-off is given here.

The subject of assay [1] is Influenza A virus. The note with it: mdck.
The test system of assay [2] is Influenza A virus. The following applies: mdck. The source holds these as a separate data set.
The subject of assay [3] is MDCK. Format: functional, cell-based. The following applies: Influenza A virus (A/Hong Kong/7/1987(H3N2)), 0.5 to 2 uM.
Assay [4] has as its system Matrix protein 2 (Influenza A virus (A/Udorn/307/1972(H3N2))), P0DOF8 [V27A]. The following applies: Influenza A virus (A/udorn/1972(H3N2)).
The subject of assay [5] is MDCK. In words: Antiviral activity against Influenza A virus (A/HK/7/87(H3N2)) harboring wild type M2 channel infected in MDCK cells assessed as reduction in plaque number at 0.5 uM after 72 hrs by crystal violet staining. Format: functional, cell-based. The note with it: Influenza A virus (A/Hong Kong/7/1987(H3N2)).
Assay [6] has as its system MDCK. In words: Antiviral activity against Influenza A virus (A/HK/7/87(H3N2)) harboring wild type M2 channel infected in MDCK cells assessed as reduction in plaque size at 0.5 uM after 72 hrs by crystal violet staining. Format: functional, cell-based. The note with it: Influenza A virus (A/Hong Kong/7/1987(H3N2)).

As a reminder, the EC50 is the concentration that produces a half-maximal response. For the compound `N=C(N)N1CC2C3C=CC(C4CC34)C2C1` (stereo unspecified), the EC50 in the assay with Influenza A virus [1] and in the assay on Influenza A virus [2] was > 100 µM throughout.

`C1=CC2C3CNCC3C1C1CC21` (stereo unspecified): the EC50 in the assay on Influenza A virus [1] and with Influenza A virus [2] was > 100 µM throughout.

On to `N=C(N)N1CC2C3C=CC(C4C=CC43)C2C1` (stereo unspecified), for which the inhibition result in the assay on MDCK [3] is “Active”. The EC50 with Influenza A virus [1] and in the assay with Influenza A virus [2] was > 100 µM each time.

Consider `C1CC(N2CC3C4CCC(C5CC45)C3C2)CCN1` (stereo unspecified), for which the inhibition result in assay [4] is “inactive”. Further, the EC50 in the assay on Influenza A virus [1] and with Influenza A virus [2] was > 100 µM in each case.

As for `C1=CC2C1C1C=CC2C2CNCC12` (stereo unspecified), the inhibition entry in the assay with MDCK [3] was “Active”. Moreover, the EC50 is < 0.8 µM with Influenza A virus [1] and 1.3 µM in the assay on Influenza A virus [2].

In the case of `N=C(N)N1CC2C3CCC(C4CC34)C2C1` (stereo unspecified), the EC50 with Influenza A virus [1] and with Influenza A virus [2] was > 100 µM in each case.

`NC12CC3CC(CC(C3)C1)C2` [AMANTADINE] returned an EC50 in the assay on Influenza A virus [2] of 30 µM.

Take `C1CC2C1C1CCC2C2CNCC12` (stereo unspecified): the EC50 in the assay with Influenza A virus [1] and in the assay with Influenza A virus [2] was > 100 µM in each case. The result with MDCK [5] and in the assay with MDCK [6] was Active.

`C1CC2C3CNCC3C1C1CC21` (stereo unspecified): the EC50 in the assay with Influenza A virus [1] and in the assay with Influenza A virus [2] was > 100 µM in each case.

In the case of `N=C(N)N1CC2C3CCC(C4CCC43)C2C1` (stereo unspecified), the EC50 in the assay with Influenza A virus [1] and in the assay with Influenza A virus [2] was > 100 µM throughout. Further, the outcome in the assay with MDCK [5] and with MDCK [6] was Active.

For `CC12CC34CN(C(=N)N)CC35CC1(C)C(C)(C5)C2(C)C4` (stereo unspecified), the EC50 in the assay on Influenza A virus [1] and in the assay with Influenza A virus [2] was > 100 µM each time.

On to `C1=CC2C3CC3C1C1CN(C3CCNCC3)CC21` (stereo unspecified), for which, in assay [4], the inhibition entry was “inactive”. The EC50 in the assay with Influenza A virus [1] was < 0.8 µM; in the assay with Influenza A virus [2], ≤ 0.8 µM.

Take `CC12CC34CNCC35CC1(C)C(C)(C5)C2(C)C4` (stereo unspecified): in the assay on MDCK [3], the inhibition entry was “Active”. The figures for the EC50 with Influenza A virus [1] and in the assay with Influenza A virus [2] were 3 µM and 1.8 µM, respectively.

Consider `CC(N)C12CC3CC(CC(C3)C1)C2` (stereo unspecified) [RIMANTADINE HYDROCHLORIDE], for which the results for the EC50 in the assay on Influenza A virus [1] and with Influenza A virus [2] were 5.1 µM and 7.6 µM, respectively.
